In PubChem BioAssay (NCI):
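Method: 48-hour compound exposure of cells in 96-well plates, five concentrations, linear interpolation of endpoints. TGI: concentration producing complete growth inhibition.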

What was measured:
Assay in all cases: NCI-60 cell line screen, 48 h
K-562 leukemia = system: K-562 leukemia
SW-620 colon = system: SW-620 colon
SNB-19 CNS = system: SNB-19 CNS
A498 renal = system: A498 renal
SK-MEL-2 melanoma = system: SK-MEL-2 melanoma
CCRF-CEM leukemia = system: CCRF-CEM leukemia
M19-MEL melanoma = system: M19-MEL melanoma
SF-268 CNS = system: SF-268 CNS
OVCAR-5 ovarian = system: OVCAR-5 ovarian
SNB-78 CNS = system: SNB-78 CNS
NCI-H460 lung = system: NCI-H460 lung
NCI-H23 lung = system: NCI-H23 lung
HCT-15 colon = system: HCT-15 colon
RPMI-8226 leukemia = system: RPMI-8226 leukemia
A549 NSCLC = system: A549 NSCLC
IGROV1 ovarian = system: IGROV1 ovarian
HCT-116 colon = system: HCT-116 colon
OVCAR-3 ovarian = system: OVCAR-3 ovarian
SF-539 CNS = system: SF-539 CNS
MALME-3M melanoma = system: MALME-3M melanoma

SMILES | TGI (K-562 leukemia) [µM] | TGI (SW-620 colon) [µM] | TGI (SNB-19 CNS) [µM] | TGI (A498 renal) [µM] | TGI (SK-MEL-2 melanoma) [µM] | TGI (CCRF-CEM leukemia) [µM] | TGI (M19-MEL melanoma) [µM] | TGI (SF-268 CNS) [µM] | TGI (OVCAR-5 ovarian) [µM] | TGI (SNB-78 CNS) [µM] | TGI (NCI-H460 lung) [µM] | TGI (NCI-H23 lung) [µM] | TGI (HCT-15 colon) [µM] | TGI (RPMI-8226 leukemia) [µM] | TGI (A549 NSCLC) [µM] | TGI (IGROV1 ovarian) [µM] | TGI (HCT-116 colon) [µM] | TGI (OVCAR-3 ovarian) [µM] | TGI (SF-539 CNS) [µM] | TGI (MALME-3M melanoma) [µM]
O=C(NC(Cc1ccc(I)cc1)C(=O)O)c1ccc(Br)cc1 (stereo not given) | > 100 | > 100 | > 100 | > 100 | > 100 | > 100 | > 100 | > 100 | > 100 | > 100 | > 100 | > 100 | > 100 | > 100 | > 100 | > 100 | > 100 | > 100 | > 100 | > 100
N=C(N)c1ccc(N=Nc2c(O)ccc3c2[nH]c2ccccc23)cc1 | 4.02 | 4.85 | > 100 | > 100 | > 100 |  |  | > 100 | 83.1 |  |  | > 100 | > 100 | 5.07 |  | > 100 | 37.5 | 5.67 | > 100 | > 80.8
COc1ccc2nc3ccccc3c(NCCCCCCN(CCCl)CCCl)c2c1 | > 18.5 | 0.472 | 3.45 |  |  |  | 5.12 | 1.18 | 1.9 | 2.13 | 0.853 |  |  |  | 6.06 | 3.85 | 1.39 | 3.14 |  | 
COC(=O)C1=C(C(=O)OC)SC2(S1)C1=C(CCCC1)SC(C(=O)OC)=C2C(=O)OC | 21.5 | 17.1 | 30.2 | 19.4 | 30 | 8.16 |  | 22.3 | 25.4 |  | 15.7 | 31.3 | 18.1 | 17.7 | 31.1 | 20.6 | 2.92 | 18.9 | 4.27 | 24.3
COc1ccc(/C(Cl)=C(\C=O)c2ccc(F)cc2)cc1OC | 73.5 | > 100 | > 100 | 54.8 | 39.4 | 48.6 | 66.1 | 83.3 |  | 62.5 | 43 | 66.6 | 83.3 | 46.3 |  | > 100 | 31 | 64.6 | 59 | 72
COc1cc(Nc2c3ccccc3nc3ccccc23)ccc1NS(C)(=O)=O | > 100 | > 100 | 48 | 19.6 | 23.6 | > 100 | 22.3 | 25.5 | 23 | 47.1 | 12 |  |  | > 100 | 12.3 | 36.3 | > 100 |  | 15.6 | 21.7
Nc1ccc2[nH]c3c(-c4ccccc4)nccc3c2c1 | > 100 | > 100 | > 100 | > 100 | > 100 | > 100 | > 100 | > 100 | > 100 | > 100 | > 100 | > 100 | > 100 | > 100 | > 100 | > 100 | > 100 | > 100 | > 100 | > 100
Cc1[nH]c(=O)[nH]c(=O)c1/C=C/C(=O)O | > 1000 | > 1000 | > 1000 | > 1000 | > 1000 | > 1000 | > 1000 | > 1000 | > 1000 | > 1000 | > 1000 | > 1000 | > 1000 | > 1000 | > 1000 | > 1000 | > 1000 | > 1000 | > 1000 | > 1000
